The target of assay [1] is T1, P2X purinoceptor 4 (Rattus norvegicus, UniProt P51577).
T1 sequence (P51577 whole entry): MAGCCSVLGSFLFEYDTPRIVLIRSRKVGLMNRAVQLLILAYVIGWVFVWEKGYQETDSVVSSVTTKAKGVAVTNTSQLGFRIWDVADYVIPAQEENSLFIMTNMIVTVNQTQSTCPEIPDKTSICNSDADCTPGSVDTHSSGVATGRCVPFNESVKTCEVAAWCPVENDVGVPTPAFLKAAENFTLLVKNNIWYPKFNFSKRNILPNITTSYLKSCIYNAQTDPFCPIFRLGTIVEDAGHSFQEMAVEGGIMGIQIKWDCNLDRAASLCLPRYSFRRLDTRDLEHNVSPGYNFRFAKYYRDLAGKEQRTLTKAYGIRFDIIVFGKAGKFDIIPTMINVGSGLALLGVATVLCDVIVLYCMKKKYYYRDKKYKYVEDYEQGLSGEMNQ

For assay [2], the target named is T2, P2X purinoceptor 4 (Homo sapiens, UniProt Q99571).
T2 sequence (Q99571 whole entry): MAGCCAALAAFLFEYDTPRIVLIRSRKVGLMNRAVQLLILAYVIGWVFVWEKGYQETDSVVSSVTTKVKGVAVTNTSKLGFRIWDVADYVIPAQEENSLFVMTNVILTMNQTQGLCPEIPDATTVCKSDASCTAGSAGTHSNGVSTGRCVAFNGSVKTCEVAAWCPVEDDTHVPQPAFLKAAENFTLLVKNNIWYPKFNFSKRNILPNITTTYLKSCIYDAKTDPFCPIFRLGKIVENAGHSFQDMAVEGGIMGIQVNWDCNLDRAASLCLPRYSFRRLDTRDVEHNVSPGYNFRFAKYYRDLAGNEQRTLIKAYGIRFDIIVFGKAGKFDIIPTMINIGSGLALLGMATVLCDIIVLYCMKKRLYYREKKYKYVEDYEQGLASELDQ

SMILES strings stand for the structures.

In assay [1], `Nc1c(S(=O)(=O)O)cc(Nc2ccc(Nc3nc(Cl)nc(Nc4cccc(S(=O)(=O)O)c4)n3)c(S(=O)(=O)O)c2)c2c1C(=O)c1ccccc1C2=O` came in with a Ki of 46.2 nM.
As for `Nc1c(S(=O)(=O)O)cc(Nc2ccc(Nc3nc(Cl)nc(Nc4ccccc4S(=O)(=O)O)n3)c(S(=O)(=O)O)c2)c2c1C(=O)c1ccccc1C2=O`, the affinity in assay [1] corresponds to a Ki of 128 nM.
Still for that read-out and setting: the result for `Cc1nc(/N=N/c2ccc(S(=O)(=O)O)cc2S(=O)(=O)O)c(COP(=O)(O)O)c(C=O)c1O` reads 500 nM.
`O=S1(=O)OC(c2cc(Br)c(O)c(Br)c2)(c2cc(Br)c(O)c(Br)c2)c2ccccc21` [NSC_8272]: the Ki turned out to be 78.3 nM in assay [2] and 301 nM in assay [1].
Take `Cc1ccc(C(=O)Nc2ccc(S(=O)(=O)O)c3cc(S(=O)(=O)O)cc(S(=O)(=O)O)c23)cc1NC(=O)c1cccc(NC(=O)Nc2cccc(C(=O)Nc3cc(C(=O)Nc4ccc(S(=O)(=O)O)c5cc(S(=O)(=O)O)cc(S(=O)(=O)O)c45)ccc3C)c2)c1` [suramin]: the Ki worked out at 178 nM in assay [2] and 500 nM in assay [1].

For the origin of these results see BindingDB's records for doi:10.1124/mol.51.1.109 (Max-Planck Institute For Experimental Medicine, 1997).
